Source: patent US9440952B2, “Compounds inhibiting leucine-rich repeat kinase enzyme activity” (Merck Sharp & Dohme Corp., priority 2013, dated 2016)

Molecular target: T1, LRRK2(G2019S mutation, GST-LRRK2(amino acids 970-2527)) (Homo sapiens, UniProt Q5S007, G2019S)
T1 construct: GST-LRRK2(amino acids 970-2527); GST (N); purchased Life Technologies Corporation
Experiment: LRRK2 Km ATP LanthaScreen Assay
Assay type: biochemical
Settings: Km ATP LanthaScreen Assay; LRRK2 G2019S; mean IC50 values; read-out: LRRK2 IC50
Method in brief: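 IC50 values are means of several runs in the Km-ATP LanthaScreen format, analysed by curve fitting of the LanthaScreen read-out.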

T1 sequence (Q5S007 970-2527 G2019S): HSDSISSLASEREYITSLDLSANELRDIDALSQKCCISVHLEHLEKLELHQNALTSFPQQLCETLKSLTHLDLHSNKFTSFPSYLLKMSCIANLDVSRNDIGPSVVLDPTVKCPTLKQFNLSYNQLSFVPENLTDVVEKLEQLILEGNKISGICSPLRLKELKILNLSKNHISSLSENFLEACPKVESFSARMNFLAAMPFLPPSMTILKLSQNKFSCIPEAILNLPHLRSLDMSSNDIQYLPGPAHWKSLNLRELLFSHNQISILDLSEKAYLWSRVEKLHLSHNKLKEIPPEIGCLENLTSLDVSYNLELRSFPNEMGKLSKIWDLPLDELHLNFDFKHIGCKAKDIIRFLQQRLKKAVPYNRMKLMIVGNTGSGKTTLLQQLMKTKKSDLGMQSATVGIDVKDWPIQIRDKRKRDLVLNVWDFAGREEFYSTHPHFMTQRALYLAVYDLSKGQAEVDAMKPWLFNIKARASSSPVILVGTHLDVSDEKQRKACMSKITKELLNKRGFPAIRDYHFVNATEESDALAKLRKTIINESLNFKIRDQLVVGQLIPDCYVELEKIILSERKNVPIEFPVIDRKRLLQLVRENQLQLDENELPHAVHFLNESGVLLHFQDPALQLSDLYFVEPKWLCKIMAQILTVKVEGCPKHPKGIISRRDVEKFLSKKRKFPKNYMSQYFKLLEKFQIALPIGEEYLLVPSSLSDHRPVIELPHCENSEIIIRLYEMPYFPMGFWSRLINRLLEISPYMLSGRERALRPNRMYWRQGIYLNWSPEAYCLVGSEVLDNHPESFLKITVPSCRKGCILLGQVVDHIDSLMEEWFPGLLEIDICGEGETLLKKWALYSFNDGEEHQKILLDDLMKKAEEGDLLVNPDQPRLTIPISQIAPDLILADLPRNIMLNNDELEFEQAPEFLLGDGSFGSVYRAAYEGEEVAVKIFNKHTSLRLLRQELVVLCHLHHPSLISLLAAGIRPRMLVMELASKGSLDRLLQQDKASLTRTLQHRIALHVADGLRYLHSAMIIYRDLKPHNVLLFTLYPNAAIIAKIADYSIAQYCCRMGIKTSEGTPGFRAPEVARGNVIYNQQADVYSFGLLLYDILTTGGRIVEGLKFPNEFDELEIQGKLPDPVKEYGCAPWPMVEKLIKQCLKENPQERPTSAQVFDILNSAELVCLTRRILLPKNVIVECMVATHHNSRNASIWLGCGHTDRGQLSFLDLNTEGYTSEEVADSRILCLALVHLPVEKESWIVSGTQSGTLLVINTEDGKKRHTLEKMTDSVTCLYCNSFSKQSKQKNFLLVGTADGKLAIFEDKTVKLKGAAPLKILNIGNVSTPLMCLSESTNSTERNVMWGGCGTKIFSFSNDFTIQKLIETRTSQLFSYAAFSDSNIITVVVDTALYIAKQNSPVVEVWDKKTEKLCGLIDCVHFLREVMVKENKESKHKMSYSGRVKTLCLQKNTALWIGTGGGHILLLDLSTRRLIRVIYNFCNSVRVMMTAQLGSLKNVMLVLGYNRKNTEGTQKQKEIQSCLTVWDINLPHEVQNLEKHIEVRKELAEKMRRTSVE

In order of rising IC50:
1. [2H]C1([2H])OC([2H])([2H])C([2H])([2H])N(c2cc(-c3n[nH]c4ccc(OC(C)C)cc34)ccn2)C1([2H])[2H] [Example 281]  1.4 nM
2. CC(C)Oc1ccc2[nH]nc(-c3ccnc(N4C5CCC4COC5)c3)c2c1 [Example 282]  7.7 nM
3. Oc1ccc2[nH]nc(-c3ccnc(N4CCCCC4)c3)c2c1 [Example 254]  10.1 nM
4. CS(=O)(=O)C1CN(c2cc(-c3n[nH]c4ccc(O)cc34)ccn2)C1 [Example 255]  30.8 nM
5. OC[C@H]1CCN(c2cc(-c3n[nH]c4ccc(OC(F)(F)F)cc34)ccn2)C1 [Example 248]  96 nM
6. CCc1nnc2n1CCN(c1cc(-c3n[nH]c4ccc(OC(F)(F)F)cc34)ccn1)C2 [Example 249]  190 nM
7. COC1(C)CN(c2cc(-c3n[nH]c4ccc(OC(F)(F)F)cc34)ccn2)C1 [Example 253]  201 nM
8. Cc1nc2c(o1)CCN(c1cc(-c3n[nH]c4ccc(OC(F)(F)F)cc34)ccn1)C2 [Example 251]  431 nM
9. FC(F)(F)Oc1ccc2[nH]nc(-c3ccnc(N4CCc5nc(C6CC6)oc5C4)c3)c2c1 [Example 252]  700 nM
10. CO[C@@H]1CCN(c2cc(-c3n[nH]c4ccc(OC(F)(F)F)cc34)ccn2)C1 [Example 250]  854 nM

Same assay, conditions: Km ATP LanthaScreen; mean IC50 of several tests; read-out: LRRK2 IC50

First: CC(C)Oc1ccc2[nH]nc(-c3ccnc(NS(=O)(=O)c4cccc(F)c4)c3)c2c1 [Example 256]
Second: COc1cccc(S(=O)(=O)Nc2cc(-c3n[nH]c4ccc(OC(C)C)cc34)ccn2)c1 [Example 257]
The IC50 of the first is 1.8-fold lower: 42.5 nM for the first, 78.4 nM for the second.

Going from `CC(C)Oc1ccc2[nH]nc(-c3ccnc(NS(=O)(=O)C4CC4)c3)c2c1` [Example 259] to `CC(C)Oc1ccc2[nH]nc(-c3ccnc(NS(=O)(=O)Cc4ccccn4)c3)c2c1` [Example 261], the IC50 rises from 63.2 nM to 124 nM (2-fold).

`CC(C)Oc1ccc2[nH]nc(-c3ccnc(NS(=O)(=O)c4ccc5c(c4)OCCO5)c3)c2c1` [Example 260] and `CC(C)Oc1ccc2[nH]nc(-c3ccnc(NS(=O)(=O)c4ccc5c(c4)N(C)C(=O)CO5)c3)c2c1` [Example 262] are within 1.5-fold of each other in IC50: 52.3 nM for the first, 43.4 nM for the second.

`CC(C)Oc1ccc2[nH]nc(-c3ccnc(NS(=O)(=O)c4ccc(C5(C#N)CC5)cc4)c3)c2c1` [Example 263] and `CC(C)Oc1ccc2[nH]nc(-c3ccnc(NS(=O)(=O)c4ccc(C(C)(C)C#N)cc4)c3)c2c1` [Example 264] are within 1.5-fold of each other in IC50: 60.8 nM for the first, 68.8 nM for the second.

Going from `Cn1cc(-c2ccc3[nH]nc(-c4ccnc(N5CCN(CCO)CC5)c4)c3c2)cn1` [Example 265] to `Cn1cc(-c2ccc3[nH]nc(-c4ccnc(N5CCCC5)c4)c3c2)cn1` [Example 267], the IC50 rises from 1.7 nM to 2.9 nM (1.7-fold).

`Cn1cc(-c2ccc3[nH]nc(-c4ccnc(N5CCCCC5)c4)c3c2)cn1` [Example 266] and `Cn1cc(-c2ccc3[nH]nc(-c4ccnc(N5CCC(F)(F)CC5)c4)c3c2)cn1` [Example 273] are within 1.5-fold of each other in IC50: 2.4 nM for the first, 3 nM for the second.

Going from `CO[C@H]1CN(c2cc(-c3n[nH]c4ccc(-c5cnn(C)c5)cc34)ccn2)C[C@@H]1O` [Example 269] to `Cn1cc(-c2ccc3[nH]nc(-c4ccnc(N5C[C@H](F)[C@@H](F)C5)c4)c3c2)cn1` [Example 271], the IC50 falls from 4.2 nM to 2.2 nM (1.9-fold). The second is the more potent here.

Going from `Cn1cc(-c2ccc3[nH]nc(-c4ccnc(N5CCC(n6cncn6)CC5)c4)c3c2)cn1` [Example 270] to `Cn1cc(-c2ccc3[nH]nc(-c4ccnc(N5CCC(C(=O)O)CC5)c4)c3c2)cn1` [Example 304], the IC50 rises from 2.2 nM to 3.6 nM (1.6-fold). The first is the more potent here.

Compared with `Cn1cc(-c2ccc3[nH]nc(-c4ccnc(N5CCc6oc(C7CC7)nc6C5)c4)c3c2)cn1` [Example 272], `Cn1cc(-c2ccc3[nH]nc(-c4ccnc(N5CCN(c6nnc(C7CC7)o6)CC5)c4)c3c2)cn1` [Example 276] is 2.1-fold lower in IC50: 5.8 nM for the first, 2.7 nM for the second. The second is the more potent here.

First: Cn1cc(-c2ccc3[nH]nc(-c4ccnc(N5CC(F)(F)C5)c4)c3c2)cn1 [Example 274]
Second: Cn1cc(-c2ccc3[nH]nc(-c4ccnc(N5CC[C@H](F)C5)c4)c3c2)cn1 [Example 278]
The IC50 of the first is 2.2-fold higher: 4.2 nM for the first, 1.9 nM for the second.

First: Cc1noc(C2CN(c3cc(-c4n[nH]c5ccc(-c6cnn(C)c6)cc45)ccn3)C2)n1 [Example 275]
Second: CN1CCN(c2cc(-c3n[nH]c4ccc(-c5cnn(C)c5)cc34)ccn2)CC1=O [Example 279]
The IC50 of the first is 1.9-fold higher: 5.6 nM for the first, 2.9 nM for the second.

First: Cn1cc(-c2ccc3[nH]nc(-c4ccnc(N5CCN(c6ccncn6)CC5)c4)c3c2)cn1 [Example 277]
Second: c1cc(-c2ccc3[nH]nc(-c4ccnc(N5CCOCC5)c4)c3c2)cnn1 [Example 319]
The IC50 of the first is 3.9-fold lower: 2.1 nM for the first, 8.2 nM for the second. The first is the more potent here.

First: CC(C)Oc1ccc2[nH]nc(-c3ccnc(N4CC5CCC(C4)O5)c3)c2c1 [Example 280]
Second: CC(C)Oc1ccc2[nH]nc(-c3ccnc(N4CC(C(=O)O)C4)c3)c2c1 [Example 284]
The IC50 of the first is 2.1-fold higher: 5 nM for the first, 2.4 nM for the second. The second is the more potent here.

`CC(C)Oc1ccc2[nH]nc(-c3ccnc(N4CC5(COC5)C4)c3)c2c1` [Example 283] and `CC(C)Oc1ccc2[nH]nc(-c3ccnc(N4CCC(F)(F)C4)c3)c2c1` [Example 286] are within 1.5-fold of each other in IC50: 5.9 nM for the first, 5.5 nM for the second.

Going from `CC(C)Oc1ccc2[nH]nc(-c3ccnc(N4CCC(F)(F)CC4)c3)c2c1` [Example 287] to `CCOc1ccc2[nH]nc(-c3ccnc(N4CCC(F)(F)CC4)c3)c2c1` [Example 288], the IC50 rises from 14 nM to 22 nM (1.6-fold). The first is the more potent here.

`COC1CCN(c2cc(-c3n[nH]c4ccc(OC(C)C)cc34)ccn2)CC1` [Example 290] and `CCOc1ccc2[nH]nc(-c3ccnc(N4CCC(OC)CC4)c3)c2c1` [Example 296] are within 1.5-fold of each other in IC50: 6 nM for the first, 7.5 nM for the second.

Compared with `CCC(C)Oc1ccc2[nH]nc(-c3ccnc(N4CCOCC4)c3)c2c1` (stereo not drawn) [Example 291], `COCC(C)Oc1ccc2[nH]nc(-c3ccnc(N4CCOCC4)c3)c2c1` (stereo not drawn) [Example 305] is 2.5-fold higher in IC50: 2.2 nM for the first, 5.4 nM for the second.

Going from `COCCNc1cc(-c2n[nH]c3ccc(OC(C)C)cc23)ccn1` [Example 292] to `CC(C)Oc1ccc2[nH]nc(-c3ccnc(N4CCCC4=O)c3)c2c1` [Example 302], the IC50 rises from 5.9 nM to 24 nM (4.1-fold).

Going from `CCCOc1ccc2[nH]nc(-c3ccnc(N4CCN(C)C(=O)C4)c3)c2c1` [Example 293] to `CC(C)Oc1ccc2[nH]nc(-c3ccnc(N4CCN(C)C(=O)C4)c3)c2c1` [Example 312], the IC50 falls from 15 nM to 2.6 nM (5.8-fold).

`CCCOc1ccc2[nH]nc(-c3ccnc(N4CCN(C)CC4)c3)c2c1` [Example 294] and `CCCOc1ccc2[nH]nc(-c3ccnc(N4CCN(S(C)(=O)=O)CC4)c3)c2c1` [Example 295] are the same in IC50: 17 nM for the first, 17 nM for the second.

First: CCOc1ccc2[nH]nc(-c3ccnc(N4CCCC4)c3)c2c1 [Example 297]
Second: CCCOc1ccc2[nH]nc(-c3ccnc(N4CCCCC4)c3)c2c1 [Example 300]
The IC50 of the first is 4.2-fold lower: 7.3 nM for the first, 31 nM for the second.

First: CCOc1ccc2[nH]nc(-c3ccnc(N4CCS(=O)(=O)CC4)c3)c2c1 [Example 298]
Second: CCCOc1ccc2[nH]nc(-c3ccnc(N4CCOCC4)c3)c2c1 [Example 301]
The IC50 of the first is 4.2-fold higher: 51 nM for the first, 12 nM for the second. The second is the more potent here.

First: CC(C)Oc1ccc2[nH]nc(-c3ccnc(N4CCN(CCO)CC4)c3)c2c1 [Example 299]
Second: CC(C)Oc1ccc2[nH]nc(-c3ccnc(N4CCOC4=O)c3)c2c1 [Example 303]
The IC50 of the first is 8-fold lower: 2 nM for the first, 16 nM for the second.

`FC1CN(c2cc(-c3n[nH]c4ccc(-c5cccnc5)cc34)ccn2)C1` [Example 306] and `Cc1ncc(-c2ccc3[nH]nc(-c4ccnc(N5CC(F)C5)c4)c3c2)n1C` [Example 307] are within 1.5-fold of each other in IC50: 2.9 nM for the first, 2.1 nM for the second.

First: Cc1nnc(-c2ccc3[nH]nc(-c4ccnc(N5CC(F)C5)c4)c3c2)o1 [Example 308]
Second: Cn1cnnc1-c1ccc2[nH]nc(-c3ccnc(N4CC(F)C4)c3)c2c1 [Example 309]
The IC50 of the first is 2.7-fold higher: 4.9 nM for the first, 1.8 nM for the second.

Going from `Cc1ncc(-c2cc3c(-c4ccnc(N5CC(F)C5)c4)n[nH]c3cc2F)n1C` [Example 310] to `Cc1ncc(-c2ccc3[nH]nc(-c4ccnc(N5CCOCC5)c4)c3c2)n1C` [Example 317], the IC50 falls from 95 nM to 1.4 nM (68-fold). The second is the more potent here.

First: Cn1cncc1-c1ccc2[nH]nc(-c3ccnc(N4CCOCC4)c3)c2c1 [Example 313]
Second: c1cc(-c2n[nH]c3ccc(-c4cnco4)cc23)cc(N2CCOCC2)n1 [Example 322]
The IC50 of the first is lower: less than 0.6 nM for the first, 0.66 nM for the second.

`COc1cccc(F)c1-c1ccc2[nH]nc(-c3ccnc(N4CCOCC4)c3)c2c1` [Example 314] and `COc1ccnc(Cl)c1-c1ccc2[nH]nc(-c3ccnc(N4CCOCC4)c3)c2c1` [Example 320] cannot be ordered by IC50: less than 0.6 nM for the first, less than 0.6 nM for the second.

Going from `Oc1ccc(-c2ccc3[nH]nc(-c4ccnc(N5CCOCC5)c4)c3c2)cn1` [Example 315] to `c1cc(-c2n[nH]c3ccc(-c4ncco4)cc23)cc(N2CCOCC2)n1` [Example 325], the IC50 falls from 39 nM to 6.9 nM (5.7-fold).

Compared with `Cc1nn(C)cc1-c1ccc2[nH]nc(-c3ccnc(N4CCOCC4)c3)c2c1` [Example 318], `Cc1ccnc(-c2ccc3[nH]nc(-c4ccnc(N5CCOCC5)c4)c3c2)n1` [Example 336] is 1.9-fold higher in IC50: 17 nM for the first, 33 nM for the second.

Going from `COc1ccncc1-c1cc2c(-c3ccnc(N4CCOCC4)c3)n[nH]c2cc1F` [Example 323] to `c1cnc(-c2ccc3[nH]nc(-c4ccnc(N5CCOCC5)c4)c3c2)cn1` [Example 324], the IC50 rises from less than 0.6 nM to 1.1 nM.

Going from `c1cnnc(-c2ccc3[nH]nc(-c4ccnc(N5CCOCC5)c4)c3c2)c1` [Example 326] to `c1cc(-c2n[nH]c3ccc(-c4cncs4)cc23)cc(N2CCOCC2)n1` [Example 327], the IC50 falls from 6.4 nM to less than 0.6 nM.

Compared with `COc1ccc(-c2ccc3[nH]nc(-c4ccnc(N5CCOCC5)c4)c3c2)c(OC)n1` [Example 328], `Clc1cnc(-c2ccc3[nH]nc(-c4ccnc(N5CCOCC5)c4)c3c2)nc1` [Example 334] is 3.6-fold lower in IC50: 189 nM for the first, 52 nM for the second.

`CCc1cnc(-c2ccc3[nH]nc(-c4ccnc(N5CCOCC5)c4)c3c2)nc1` [Example 330] and `CCCc1cnc(-c2ccc3[nH]nc(-c4ccnc(N5CCOCC5)c4)c3c2)nc1` [Example 335] are within 1.5-fold of each other in IC50: 5.6 nM for the first, 5.4 nM for the second.

Going from `CC(C)(O)Cc1ccc2[nH]nc(-c3ccnc(N4CCOCC4)c3)c2c1` [Example 332] to `OCCc1ccc2[nH]nc(-c3ccnc(N4CCOCC4)c3)c2c1` [Example 333], the IC50 falls from 93 nM to 30 nM (3.1-fold).

In the case of `Fc1cnc(-c2ccc3[nH]nc(-c4ccnc(N5CCOCC5)c4)c3c2)nc1` [Example 337], the IC50 is reported as 42 nM.
